Data on 15 compounds can be found in US8871753B2, “Macrocyclic compounds and their use as kinase inhibitors” (Incyte Corporation, priority 2008, dated 2014).

Common to all, as to format: biochemical
Assay [1] addresses T1, human JAK1 (a.a. 837-1142) (Homo sapiens, UniProt P23458).
T1 construct: human JAK1 (a.a. 837-1142); His tag (N); made in house; host or cells: insect cells (baculovirus)
Kind of assay: In vitro JAK kinase assay (HTRF, phosphorylation of a biotinylated peptide), JAK1. To be noted: read-out: JAK1 IC50. The essentials: (§1)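 Kinase activity was measured as phosphorylation of a biotinylated peptide, with ATP at 90 μM for JAK1, 30 μM for JAK2 and 3 μM for JAK3. Reactions ran 1 hr at room temperature, were stopped with EDTA plus SA-APC and Eu-Py20, and were read by HTRF after 40 minutes of antibody binding.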
(In general: In TR-FRET formats the signal depends on donor and acceptor labels being close together.)

For assay [2], the target named is TYK2 (Homo sapiens, UniProt P29597). The assay is described as follows: TYK2 kinase inhibition (Table A1).
In assay [3] the target is T2, human JAK3 (a.a. 781-1124) (Homo sapiens, UniProt P52333).
T2 construct: JAK3 (a.a. 781-1124); His tag (N); made in house; host or cells: insect cells (baculovirus)
Kind of assay: In vitro JAK kinase assay (HTRF, phosphorylation of a biotinylated peptide), JAK3. The essentials:
as §1

Assay [4] has as its target T3, human JAK2 (a.a. 828-1132) (Homo sapiens, UniProt O60674).
T3 construct: JAK2 (a.a. 828-1132); His tag (N); made in house; host or cells: insect cells (baculovirus)
The assay is described as follows: In vitro JAK kinase assay (HTRF, phosphorylation of a biotinylated peptide), JAK2. Summed up: as §1

Assay [5] deals with T4, Recombinant Human Anaplastic Lymphoma Kinase (Homo sapiens, UniProt Q9UM73).
T4 construct: purchased Invitrogen, Carlsbad, Calif
Kind of assay: ALK HTRF kinase assay. The essentials:
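Recombinant human ALK phosphorylated a biotinylated synthetic peptide. Phosphotyrosine was detected by TR-FRET between a Eu-labelled anti-phosphotyrosine antibody and streptavidin-allophycocyanin. IC50 values came from fitting signal against inhibitor concentration to a four-parameter logistic equation with variable Hill slope.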

Where [6] appears, read: Table B1, cells without percent sign.
Where [7] appears, read: method AA1 (90 μM ATP) or AA2 (1000 μM ATP), not stated per value.
Setting [8] is: method AA1 (3 μM ATP) or AA2 (1000 μM ATP), not stated per value.
The mark [9] stands for this setting: method AA1 (30 μM ATP) or AA2 (1000 μM ATP), not stated per value.
Where [10] appears, read: compound at 500 nM or 1 mM, 90 μM ATP.
The mark [11] stands for this setting: percentage inhibition of the example compound at a concentration of 500 nM or 1 mM (not specified which).
[12] abbreviates: compound at a concentration of 500 nM or 1 mM (not specified), cells shown as percentage.

Where a name gives a salt, the structure may show the parent alone. Read-outs that look alike come from different tables or passages of the source.

T3 sequence (O60674 828-1132): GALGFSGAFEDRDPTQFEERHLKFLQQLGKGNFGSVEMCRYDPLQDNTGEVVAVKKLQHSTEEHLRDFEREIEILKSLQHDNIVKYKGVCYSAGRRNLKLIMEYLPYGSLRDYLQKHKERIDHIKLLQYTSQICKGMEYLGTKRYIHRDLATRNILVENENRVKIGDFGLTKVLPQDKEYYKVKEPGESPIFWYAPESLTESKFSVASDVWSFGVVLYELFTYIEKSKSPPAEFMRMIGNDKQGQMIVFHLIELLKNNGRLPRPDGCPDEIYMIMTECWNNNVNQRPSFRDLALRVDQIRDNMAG
T2 sequence (P52333 781-1124): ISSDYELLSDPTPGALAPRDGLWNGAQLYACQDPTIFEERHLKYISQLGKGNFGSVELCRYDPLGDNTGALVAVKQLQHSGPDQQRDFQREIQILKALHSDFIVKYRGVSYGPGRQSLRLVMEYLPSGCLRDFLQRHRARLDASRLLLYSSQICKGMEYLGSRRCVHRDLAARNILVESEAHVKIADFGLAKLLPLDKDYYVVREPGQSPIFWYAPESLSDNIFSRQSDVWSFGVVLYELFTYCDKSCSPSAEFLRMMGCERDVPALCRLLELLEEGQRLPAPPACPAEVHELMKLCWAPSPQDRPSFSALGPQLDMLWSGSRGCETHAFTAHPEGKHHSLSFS
Sequence of TYK2 (P29597 whole entry): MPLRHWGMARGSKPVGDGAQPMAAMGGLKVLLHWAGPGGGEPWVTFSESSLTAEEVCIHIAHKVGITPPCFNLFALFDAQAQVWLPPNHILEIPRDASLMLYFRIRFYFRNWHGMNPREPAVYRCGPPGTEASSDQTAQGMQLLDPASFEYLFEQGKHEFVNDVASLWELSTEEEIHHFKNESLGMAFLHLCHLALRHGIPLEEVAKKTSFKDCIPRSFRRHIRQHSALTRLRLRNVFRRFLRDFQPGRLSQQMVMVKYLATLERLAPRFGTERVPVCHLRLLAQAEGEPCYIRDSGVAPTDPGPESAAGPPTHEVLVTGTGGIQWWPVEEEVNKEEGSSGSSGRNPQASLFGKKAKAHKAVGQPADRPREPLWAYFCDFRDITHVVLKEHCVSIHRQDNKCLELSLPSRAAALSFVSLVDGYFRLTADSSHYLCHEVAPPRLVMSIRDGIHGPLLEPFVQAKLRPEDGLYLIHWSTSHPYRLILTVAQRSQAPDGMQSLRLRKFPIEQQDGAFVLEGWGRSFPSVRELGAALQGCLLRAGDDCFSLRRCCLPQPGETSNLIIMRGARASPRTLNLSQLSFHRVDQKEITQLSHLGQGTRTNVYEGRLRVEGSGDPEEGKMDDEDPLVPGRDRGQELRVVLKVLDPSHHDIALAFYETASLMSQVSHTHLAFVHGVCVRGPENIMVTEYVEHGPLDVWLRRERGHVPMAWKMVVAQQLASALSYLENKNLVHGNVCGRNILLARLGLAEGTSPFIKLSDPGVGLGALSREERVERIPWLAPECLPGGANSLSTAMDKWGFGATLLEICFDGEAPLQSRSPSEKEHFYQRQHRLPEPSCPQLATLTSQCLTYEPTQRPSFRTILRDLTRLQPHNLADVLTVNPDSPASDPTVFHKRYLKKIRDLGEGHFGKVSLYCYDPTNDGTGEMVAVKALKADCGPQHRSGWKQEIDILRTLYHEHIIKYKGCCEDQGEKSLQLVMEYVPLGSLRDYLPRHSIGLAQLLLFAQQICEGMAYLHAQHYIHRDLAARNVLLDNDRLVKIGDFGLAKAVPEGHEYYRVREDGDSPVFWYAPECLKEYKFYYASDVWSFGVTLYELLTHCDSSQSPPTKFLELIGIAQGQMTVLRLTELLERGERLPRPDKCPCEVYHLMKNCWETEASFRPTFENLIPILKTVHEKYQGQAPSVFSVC
T4 sequence (Q9UM73 19-1620): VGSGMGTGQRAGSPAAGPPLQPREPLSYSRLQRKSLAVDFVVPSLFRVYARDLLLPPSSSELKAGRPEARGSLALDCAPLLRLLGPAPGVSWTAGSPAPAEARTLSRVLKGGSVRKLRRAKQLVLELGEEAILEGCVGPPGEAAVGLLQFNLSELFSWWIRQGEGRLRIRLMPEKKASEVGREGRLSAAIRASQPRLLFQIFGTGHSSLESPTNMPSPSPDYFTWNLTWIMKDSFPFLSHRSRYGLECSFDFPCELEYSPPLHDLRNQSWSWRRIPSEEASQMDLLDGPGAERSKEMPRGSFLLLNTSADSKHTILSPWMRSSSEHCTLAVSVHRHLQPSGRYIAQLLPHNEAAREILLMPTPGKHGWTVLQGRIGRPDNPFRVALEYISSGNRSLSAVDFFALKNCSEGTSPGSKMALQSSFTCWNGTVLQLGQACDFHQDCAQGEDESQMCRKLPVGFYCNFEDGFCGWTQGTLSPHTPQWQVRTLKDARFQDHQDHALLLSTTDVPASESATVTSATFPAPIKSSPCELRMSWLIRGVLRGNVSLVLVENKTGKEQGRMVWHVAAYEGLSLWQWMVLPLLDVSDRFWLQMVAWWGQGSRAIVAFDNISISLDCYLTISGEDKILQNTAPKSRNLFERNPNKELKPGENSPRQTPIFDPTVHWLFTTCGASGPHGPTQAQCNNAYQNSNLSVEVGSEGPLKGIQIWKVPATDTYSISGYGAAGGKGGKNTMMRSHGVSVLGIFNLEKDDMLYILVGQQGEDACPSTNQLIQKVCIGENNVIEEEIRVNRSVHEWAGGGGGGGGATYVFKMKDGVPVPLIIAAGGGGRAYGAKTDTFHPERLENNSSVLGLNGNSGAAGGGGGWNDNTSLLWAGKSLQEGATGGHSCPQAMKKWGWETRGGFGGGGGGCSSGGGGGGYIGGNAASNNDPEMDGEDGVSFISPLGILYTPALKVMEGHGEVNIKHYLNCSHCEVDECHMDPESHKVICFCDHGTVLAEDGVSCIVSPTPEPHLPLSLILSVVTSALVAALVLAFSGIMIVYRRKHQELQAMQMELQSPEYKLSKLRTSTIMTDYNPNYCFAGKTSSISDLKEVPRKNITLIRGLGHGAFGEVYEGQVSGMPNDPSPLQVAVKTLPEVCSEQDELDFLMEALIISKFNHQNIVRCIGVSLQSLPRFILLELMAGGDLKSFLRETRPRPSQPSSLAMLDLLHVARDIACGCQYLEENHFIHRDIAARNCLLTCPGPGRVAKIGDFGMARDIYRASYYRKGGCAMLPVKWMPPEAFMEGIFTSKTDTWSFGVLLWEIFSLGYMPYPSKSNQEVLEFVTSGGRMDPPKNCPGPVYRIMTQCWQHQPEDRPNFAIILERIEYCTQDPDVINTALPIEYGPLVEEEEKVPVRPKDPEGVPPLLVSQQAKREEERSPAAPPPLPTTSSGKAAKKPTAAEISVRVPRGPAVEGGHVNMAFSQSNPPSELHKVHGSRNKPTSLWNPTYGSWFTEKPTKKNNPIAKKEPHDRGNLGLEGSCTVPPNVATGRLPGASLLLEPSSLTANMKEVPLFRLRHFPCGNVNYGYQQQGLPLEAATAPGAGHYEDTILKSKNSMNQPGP
T1 sequence (P23458 849-1154): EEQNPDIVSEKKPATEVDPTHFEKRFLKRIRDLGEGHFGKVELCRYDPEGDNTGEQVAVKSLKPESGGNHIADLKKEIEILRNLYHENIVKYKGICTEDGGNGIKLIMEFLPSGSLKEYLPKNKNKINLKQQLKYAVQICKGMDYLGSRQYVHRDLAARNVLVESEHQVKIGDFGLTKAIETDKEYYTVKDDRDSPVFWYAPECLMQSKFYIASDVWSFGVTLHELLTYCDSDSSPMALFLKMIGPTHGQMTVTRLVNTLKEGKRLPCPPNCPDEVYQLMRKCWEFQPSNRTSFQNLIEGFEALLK

As a reminder, the IC50 is the concentration that inhibits the measured activity by half. Consider `CC(C)(C)NS(=O)(=O)c1cc2cc(c1)Nc1nc(ncc1Br)Nc1cccc(c1)CC2` [Example B17, 6-Bromo-N-(tert-butyl)-2,4,8,22-tetraazatetracyclo[14.3.1.1(3,7).1(9,13)]docosa-1(20),3(22),4,6,9(21),10,12,16,18-nonaene-11-sulfonamide trifluoroacetate], for which the IC50 was 71 nM in assay [1] (Table B1); 152 nM in assay [2] (Table B1); 126 nM in assay [3] (Table B1); 11 nM in assay [4] (Table B1); more than 10000 nM in assay [5] (setting [6]).

As for `O=C(CC1CCN(c2cccc(Cl)n2)CC1)Nc1ccc2cc1CCc1cncc(c1)Nc1ncc(Cl)c(n1)N2` [Example A180, N-[6-Chloro-2,4,8,18,22-pentaazatetracyclo[14.3.1.1(3,7).1(9,13)]docosa-1(20),3(22),4,6,9(21),10,12,16,18-nonaen-12-yl]-2-[1-(6-chloropyridin-2-yl)piperidin-4-yl]acetamide tris(trifluoroacetate)], the IC50 is 13 nM in assay [1] (setting [7]), more than 200 nM in assay [2], more than 200 nM in assay [3] (setting [8]) and more than 200 nM in assay [4] (setting [9]). Besides, in assay [5] (setting [10]), the “ALK % of inhibition at a concentration of 500 nM or 1 mM” value (“ALK % of inhibition” for short) came out at 13%.

Consider `CCC(=O)Nc1ccc2cc1CCc1cccc(c1)Nc1ncc(Cl)c(n1)N2` [Example B54, N-[6-Chloro-2,4,8,22-tetraazatetracyclo[14.3.1.1(3,7).1(9,13)]docosa-1(20), 3(22),4,6,9(21),10,12,16,18-nonaen-12-yl]propanamide trifluoroacetate], for which the IC50 in assay [1] (Table B1) was determined as 4.9 nM; in assay [2] (Table B1), 14 nM; in assay [3] (Table B1), 5.9 nM; in assay [4] (Table B1), 3.9 nM; in assay [5] (setting [6]), 970 nM.

As to `Cc1ncsc1C(=O)N1CCC(CC(=O)Nc2ccc3cc2CCc2cncc(c2)Nc2ncc(Cl)c(n2)N3)CC1` [Example A216, N-[6-Chloro-2,4,8,18,22-pentaazatetracyclo[14.3.1.1(3,7).1(9,13)]docosa-1(20),3(22),4,6,9(21),10,12,16,18-nonaen-12-yl]-2-{1-[(4-methyl-1,3-thiazol-5-yl)carbonyl]piperidin-4-yl}acetamide bis(trifluoroacetate)], the IC50 in assay [1] (setting [7]) is 80 nM; in assay [2] it was more than 200 nM; in assay [3] (setting [8]), more than 200 nM; in assay [4] (setting [9]), more than 200 nM. In addition, the “ALK % of inhibition” value in assay [5] (setting [10]) amounted to 29%.

On to `Cc1ccc(NC(=O)N2CCC(CC(=O)Nc3ccc4cc3CCc3cncc(c3)Nc3ncc(Cl)c(n3)N4)CC2)cc1` [Example A151, 4-(2-{[6-Chloro-2,4,8,18,22-pentaazatetracyclo[14.3.1.1(3,7).1(9,13)]docosa-1(20),3(22),4,6,9(21),10,12,16,18-nonaen-12-yl]amino}-2-oxoethyl)-N-(4-methylphenyl)piperidine-1-carboxamide bis(trifluoroacetate)], for which the IC50 is 0.3 nM in assay [1] (setting [7]), 3.8 nM in assay [2], more than 100 nM in assay [3] (setting [8]) and 1.4 nM in assay [4] (setting [9]). In addition, the “ALK % of inhibition” value in assay [5] (setting [10]) is listed as 45%.

`O=C(Nc1ccc2cc1CCc1cncc(c1)Nc1ncc(Cl)c(n1)N2)N1CCN(c2ccc(Cl)cc2)CC1` [Example B307, N-[6-Chloro-2,4,8,18,22-pentaazatetracyclo[14.3.1.1(3,7).1(9,13)]docosa-1(20),3(22),4,6,9(21),10,12,16,18-nonaen-12-yl]-4-(4-chlorophenyl)piperazine-1-carboxamide tris(trifluoroacetate)]: the IC50 is 36 nM in assay [1] (Table B1), 66 nM in assay [2] (Table B1), more than 400 nM in assay [3] (Table B1) and 217 nM in assay [4] (Table B1). Besides, the “ALK % of inhibition” value in assay [5] (setting [11]) was found to be 74%.

Turning to `O=C(NO)Nc1ccc2cc1CCc1cccc(c1)Nc1ncc(Cl)c(n1)N2` [Example B324, N-[6-Chloro-2,4,8,22-tetraazatetracyclo[14.3.1.1(3,7).1(9,13)]docosa-1(20),3(22),4,6,9(21),10,12,16,18-nonaen-12-yl]-N′-hydroxyurea trifluoroacetate], the IC50 in assay [1] (Table B1) was 20 nM; in assay [2] (Table B1), 2.8 nM; in assay [3] (Table B1), 7.5 nM; in assay [4] (Table B1) it was 56 nM. In assay [5] (setting [11]), the “ALK % of inhibition” value is listed as 16%.

Consider `CC(=O)N1Cc2cccc(c2)Nc2ncc(Cl)c(n2)Nc2cccc(c2)C1` [Example D74, 15-Acetyl-6-chloro-2,4,8,15,23-pentaazatetracyclo[15.3.1.1(3,7).1(9,13)]tricosa-1(21),3(23),4,6,9(22),10,12,17,19-nonaene trifluoroacetate], for which the IC50 was 160 nM in assay [1] (Table D1); 343 nM in assay [2] (Table D1); 225 nM in assay [3] (Table D1); 83 nM in assay [4] (Table D1); more than 1000 nM in assay [5] (Table D1, 90 μM ATP).

For the compound `CN1CCCC1CCNC(=O)Nc1ccc2cc1CCc1cccc(c1)Nc1ncc(Cl)c(n1)N2` (stereo not drawn) [Example B256, N-[6-Chloro-2,4,8,22-tetraazatetracyclo[14.3.1.1(3,7).1(9,13)]docosa-1(20),3(22),4,6,9(21),10,12,16,18-nonaen-12-yl]-N′-[2-(1-methylpyrrolidin-2-yl)ethyl]urea bis(trifluoroacetate)], the IC50 in assay [1] (Table B1) was 4.2 nM; in assay [2] (Table B1), 21 nM; in assay [3] (Table B1), 77 nM; in assay [4] (Table B1), 13 nM. Further, the “ALK % of inhibition” value in assay [5] (setting [12]) worked out at 23%.

With `O=C(Nc1ccc2cc1CCc1cccc(c1)Nc1ncc(Cl)c(n1)N2)C1CCN(C(=O)c2ccc3c(c2)OCO3)CC1` [Example A31, 1-(1,3-Benzodioxol-5-ylcarbonyl)-N-[6-chloro-2,4,8,22-tetraazatetracyclo[14.3.1.1(3,7).1(9,13)]docosa-1(20),3(22),4,6,9(21),10,12,16,18-nonaen-12-yl]piperidine-4-carboxamide trifluoroacetate], the IC50 amounted to 42 nM in assay [1] (setting [7]), 115 nM in assay [2], 108 nM in assay [3] (setting [8]) and 49 nM in assay [4] (setting [9]). In addition, the “ALK % of inhibition” value in assay [5] (setting [10]) turned out to be 26%.

Consider `CN(Cc1ccc2cc1CCc1cncc(c1)Nc1ncc(Cl)c(n1)N2)CC1CCN(S(=O)(=O)c2ccccc2C#N)CC1` [Example B340, 2-[(4-{[{[6-Chloro-2,4,8,18,22-pentaazatetracyclo[14.3.1.1(3,7).1(9,13)]docosa-1(20),3(22),4,6,9(21),10,12,16,18-nonaen-12-yl]methyl}(methyl)amino]methyl}piperidin-1-yl)sulfonyl]benzonitrile tris(trifluoroacetate)], for which the IC50 in assay [1] (Table B1) is 1.2 nM; in assay [2] (Table B1), 180 nM; in assay [3] (Table B1), more than 400 nM; in assay [4] (Table B1), 41 nM. Moreover, the “ALK % of inhibition” value in assay [5] (setting [11]) was found to be 24%.

On to `Clc1cnc2nc1Nc1cccc(c1)COc1cccc(c1)N2` [Example D6, 6-Chloro-15-oxa-2,4,8,22-tetraazatetracyclo[14.3.1.1(3,7).1(9,13)]docosa-1(20),3(22),4,6,9(21),10,12,16,18-nonaene trifluoroacetate], for which the IC50 in assay [1] (Table D1) was 36 nM; in assay [2] (Table D1), 16 nM; in assay [3] (Table D1), more than 100 nM; in assay [4] (Table D1), 37 nM; in assay [5] (Table D1, 90 μM ATP), 4190 nM.

Take `CN(C(=O)Nc1ccc2cc1CCc1cncc(c1)Nc1ncc(Cl)c(n1)N2)[C@H]1CCN(Cc2ccccc2)C1` [Example B284, N-[(3S)-1-Benzylpyrrolidin-3-yl]-N′-[6-chloro-2,4,8,18,22-pentaazatetracyclo[14.3.1.1(3,7).1(9,13)]docosa-1(20),3(22),4,6,9(21),10,12,16,18-nonaen-12-yl]-N-methylurea]: the IC50 was 72 nM in assay [1] (Table B1), 409 nM in assay [2] (Table B1), more than 1000 nM in assay [3] (Table B1) and 368 nM in assay [4] (Table B1). For the same compound, the “ALK % of inhibition” value in assay [5] (setting [12]) is on record as 25%.

Take `CNC(=O)N1CCC(CC(=O)Nc2ccc3cc2CCc2cncc(c2)Nc2ncc(Cl)c(n2)N3)CC1` [Example A100, 4-(2-{[6-Chloro-2,4,8,18,22-pentaazatetracyclo[14.3.1.1(3,7).1(9,13)]docosa-1(20),3(22),4,6,9(21),10,12,16,18-nonaen-12-yl]amino}-2-oxoethyl)-N-methylpiperidine-1-carboxamide bis(trifluoroacetate)]: the IC50 was 1.5 nM in assay [1] (setting [7]), 3 nM in assay [2], 58 nM in assay [3] (setting [8]) and 5.8 nM in assay [4] (setting [9]). The “ALK % of inhibition” value in assay [5] (setting [10]) is 28%.

In the case of `O=C(Nc1nccs1)c1cc2cc(c1)OCCSc1cccc(c1)Nc1nc(ncc1Cl)N2` [Example D54, 6-Chloro-N-1,3-thiazol-2-yl-17-oxa-14-thia-2,4,8,24-tetraazatetracyclo[16.3.1.1(3,7).1(9,13)]tetracosa-1(22),3(24),4,6,9(23),10,12,18,20-nonaene-20-carboxamide trifluoroacetate], the IC50 is 18 nM in assay [1] (Table D1); 27 nM in assay [2] (Table D1); 132 nM in assay [3] (Table D1); 15 nM in assay [4] (Table D1); 1220 nM in assay [5] (Table D1, 90 μM ATP).
